The source made the active and inactive calls.
What was measured:
Assay type in all cases: functional, organism-based
Candida albicans = assay: Antimicrobial activity against Candida albicans at 20 ug/mL by NCCLS method
Cryptococcus neoformans = assay: Antimicrobial activity against Cryptococcus neoformans at 20 ug/mL by microplate assay
Aspergillus fumigatus = assay: Antimicrobial activity against Aspergillus fumigatus at 20 ug/mL
Staphylococcus aureus [1] = assay: Antimicrobial activity against Staphylococcus aureus at 20 ug/mL by microplate assay
Staphylococcus aureus [2] = assay: Antimicrobial activity against methicillin-resistant Staphylococcus aureus at 20 ug/mL by microplate assay
Pseudomonas aeruginosa = assay: Antimicrobial activity against Pseudomonas aeruginosa at 20 ug/mL
[3] = test system: Mycobacterium intracellulare; assay: Antimicrobial activity against Mycobacterium intracellular at 20 ug/mL
Plasmodium falciparum [4] = assay: Antimalarial activity against Plasmodium falciparum D6 at 40 ug/mL
Plasmodium falciparum [5] = assay: Antimalarial activity against Plasmodium falciparum W2 at 40 ug/mL

Measured: Activity

C[C@H](CC[C@H](O)C(C)(C)O[C@@H]1O[C@H](CO)[C@@H](O)[C@H](O)[C@H]1O)[C@H]1CC[C@@]2(C)[C@@H]3CC[C@H]4C(C)(C)[C@H](O)CC(=O)[C@@]45C[C@@]35C(=O)C[C@]12C
inactive: all assays above

C[C@H](CC[C@H](O)C(C)(C)O[C@@H]1O[C@H](CO)[C@@H](O)[C@H](O)[C@H]1O)[C@H]1CC[C@@]2(C)[C@@H]3[C@@H](O)C[C@H]4C(C)(C)C=CC(=O)[C@@]45C[C@@]35CC[C@]12C
inactive: all assays above

C[C@H](CC[C@H](O)C(C)(C)O[C@@H]1O[C@H](CO)[C@@H](O)[C@H](O)[C@H]1O)[C@H]1CC[C@@]2(C)[C@H]3C(=CC[C@]12C)C[C@]12O[C@H]3C[C@H]1C(C)(C)[C@H](O)C[C@@H]2O
inactive: all assays above

C[C@H](CC[C@H](O)C(C)(C)O[C@@H]1O[C@H](CO)[C@@H](O)[C@H](O)[C@H]1O)[C@H]1CC[C@@]2(C)[C@@H]3[C@@H](O)C[C@H]4C(C)(C)[C@H](O)CC(=O)[C@@]45C[C@@]35CC[C@]12C
inactive: all assays above
